Laboratory results reported in patent US20020173036A1, “Cell line and method of making and using same” (priority 2001, published 2002).

Assays:
MARCKS = MARCKS immunostaining (subcellular localization); format: cell-based, human; conditions: 90 min at 37° C.
Protocol: (§1) Cells were treated as described for the growth culve for 90 min at 37° C. Prior to MARCKS staining some cells were treated with 14 nM bisindolylmaleimide (Calbiochem, La Jolla, Calif.) for 90 min at 37° C. in order to down-regulate PKC isoforms. Cells were immunostained for PKC-α using an immunofluorescent assay kit and instructions from Research and Diagnostics (Berkley, Calif.) as described previously by Carter, et al., 1998. For MARCKS staining, cells were fixed and permeabilized as described for F-actin visualization and exposed to an anti-MARCKS mouse monoclonal IgG antibody (Upstate Biotechnology, Lake Placid, N.Y.) diluted 1:400 in 1% Bovine Serum Albumin and 0.5% nonfat dry milk (Carnation) in PBS for 1 hr at 37° C. […] Cells were rinsed, mounted and observed as described for actin staining.

CAC-1 cells [1] = assay: Cell detachment assay; format: cell-based, human; conditions: 1 μM, 24 hrs at 37° C.
Protocol: CAC-1 cells were plated onto 35 mm plastic tissue culture dishes at 100,000 cells per dish and allowed to attach for 7 days. For analysis of the retinoic acid effects on cell attachment, cell detachment assays were performed using the methods of Guo, et al., 1995. Cells were exposed to media alone (controls), 1 μM 13-cis retinoic acid, […] retinoic acid or corresponding doses of ethanol alone in culture media alone (vehicle control) for 24 hrs at 37° C. prior to cell counting. The assays were performed in duplicate. Cells were rinsed twice with sterile HBSS and exposed to 0.5% trypsin/EDTA (Gibco, BRL) for 10 min with constant agitation on a rocker set at 120 rpm's. The media containing the detached cells was collected. Detached cells from each dish were counted using a hemacytometer and the mean calculated and graphed using Cricket Graph. Statistics were performed using StatMost, (DataMost Corporation, Sandy, Utah). Statistical analysis was performed using one way analysis of variance-(ANOVA).

PKC-α [2] = biological target: T1, PKC-α (Homo sapiens, UniProt P17252); assay: PKC-α immunostaining (subcellular localization); format: cell-based; conditions: 1 μM, 90 min at 37° C.
T1 construct: Cytosolic and particulate fractions were prepared from CAC-1 cells and 30 μg of protein/lane was applied to SDS/PAGE and PKC-α detected by immunoblotting; endogenous in cells
Protocol: as §1

PKC-α [3] = biological target: T1, PKC-α; assay: PKC-α Western blot of cytosolic and particulate fractions; format: cell-based; conditions: CAC-1 cells; for amount of PKC-α in the cytosolic fraction / amount of PKC-α in the particulate fraction: 1 μM, 90 min
Protocol: Confluent 100 mm dishes of CAC-1 cells in the exponential phase of growth (70-80% maximum density) were treated for 90 min with media alone or 1 μM doses of all-trans or 13-cis retinoic acid, corresponding amounts of ethanol (vehcile control) or with TPA for 20 min to activate PKC-α. Cytosolic and particulate fractions of cells were isolated as described previously (Carter, et al., 1998) and changes in PKC-α were analyzed by Western blot analysis using methods described previously and a primary antibody from Transduction Laboratories (Carter, et al., 1998).

CAC-1 cells [4] = assay: Retinoic acid treatment and F-actin staining with cell size measurement; conditions: 1 μM, 90 min at 37° C.; for mean cell size relative to cells only exposed to media or ethanol: 25 cells per group; for cell enlargement and actin filament reorganization (F-actin staining): CAC-1 cells at passage 12
hematopoietic cells = conditions: cited from earlier work

Compound | MARCKS localization (MARCKS; 14 nM) | decrease in cell detachment compared to controls (CAC-1 cells [1]) | PKC-α localization (PKC-α [2]) | amount of PKC-α in the cytosolic fraction (PKC-α [3]) | amount of PKC-α in the particulate fraction (PKC-α [3]) | MARCKS localization (MARCKS; 1 μM) | mean cell size relative to cells only exposed to media or ethanol (CAC-1 cells [4]) | cell enlargement and actin filament reorganization (F-actin staining) (CAC-1 cells [4]) | PKC-α distribution between cytosolic and particulate fractions (PKC-α [3]; 100 nM TPA for 20 min) | decrease in mean F-actin content (hematopoietic cells) [%]
bisindolylmaleimide | MARCKS staining was prominent in the plasma membrane |  |  |  |  |  |  |  |  | 
CC1=C(/C=C/C(C)=C/C=C/C(C)=C/C(=O)O)C(C)(C)CCC1 [all-trans retinoic acid] |  | around 40% | localize exclusively to the cytoplasm occurring predominantly in perinuclear regions | slight increase | decrease | MARCKS localized to the plasma membrane | twice the size | cells also enlarged and actin filaments were prominent throughout the cells |  | 
CCCCCCCCCCCCCC(=O)O[C@@H]1[C@@H](C)[C@@]2(O)[C@@H](C=C(CO)C[C@]3(O)C(=O)C(C)=C[C@@H]23)[C@@H]2C(C)(C)[C@]12OC(C)=O [TPA, 12-O-tetradecanoylphorbol-13-acetate] |  |  |  |  |  |  |  |  | most of the PKC-α was present in the particulate fraction | 32
CC1=C(/C=C/C(C)=C/C=C/C(C)=C\C(=O)O)C(C)(C)CCC1 [13-cis retinoic acid] |  | around 40% | localize exclusively to the cytoplasm occurring predominantly in perinuclear regions | slight increase | decrease | MARCKS localized to the plasma membrane | twice the size | cells enlarged and actin filaments were apparent |  | 
